Patent US7897369B2, “Isoprenoid wax ester synthases, isoprenoid acyl CoA-synthetases, and uses thereof” (Regents of the University of Minnesota, priority 2007, dated 2011)

What was measured:
Type in all cases: biochemical, Marinobacter hydrocarbonoclasticus DSM 8798
[1] = target: T1, WS2 (Marinobacter nauticus, UniProt A3RE51); test: Kinetic WS assay, spectrophotometric (CoA release, DTNB); conditions: both substrates 1 mM; for Acyl-CoA specificity of WS2: hexadecanol as acyl acceptor
Experimental: Assay reactions were preincubated at 37° C. for 5 min before the reactions were started by the addition of enzyme. Heat-denatured enzyme (99° C. for 15 min) was used as a negative control.
Acyl-CoA and fatty/isoprenoid alcohol specificity of WS2 was determined in the same manner as described for the kinetic WS assay with assumed saturating conditions containing both the fatty/isoprenoid alcohol and acyl-CoA substrates at a concentration of 1 mM. Acyl-CoA specificity was measured with hexadecanol as acyl acceptor, whereas palmitoyl-CoA was used as acyl donor to determine alcohol specificity.
A spectrophotometric assay was developed to determine the kinetic properties of WS1 and WS2. […] The specific activities of WS1, WS2, and Acinetobacter WS/DGAT were measured with palmitoyl-CoA and hexadecanol, palmitoyl-CoA and phytol, and phytanoyl-CoA and phytol. Phytanoyl-CoA for these assays was enzymatically synthesized from phytanic acid and CoA using the above-characterized isoprenoid/acyl-CoA synthetase Acs2.

[2] = test system: WS1; test: Coupled enzyme assay, WS substrate profile (TLC); set-up: key to WE formation (spot intensity of wax ester products on TLC), WS1, C10 / WE formation (spot intensity of wax ester products on TLC), WS1, C12 / WE formation (spot intensity of wax ester products on TLC), WS1, C14 / WE formation (spot intensity of wax ester products on TLC), WS1, C16 / WE formation (spot intensity of wax ester products on TLC), WS1, Phytol / WE formation (spot intensity of wax ester products on TLC), WS1, Farnesol: no activity (−); ranging from no activity (−) to most active (+++); ranging from no activity (−) to most active (+++); most active (+++); conditions: 12 h at 37° C., each substrate 250 μM; for WE formation (spot intensity of wax ester products on TLC), WS1, Farnesol: alcohol farnesol; for WE formation (spot intensity of wax ester products on TLC), WS1, Phytol: alcohol phytol; for WE formation (spot intensity of wax ester products on TLC), WS1, C10: fatty alcohol C10; for WE formation (spot intensity of wax ester products on TLC), WS1, C12: fatty alcohol C12; for WE formation (spot intensity of wax ester products on TLC), WS1, C14: fatty alcohol C14; for WE formation (spot intensity of wax ester products on TLC), WS1, C16: fatty alcohol C16
Experimental: (§1) Stock solutions of various substrates were prepared in 50 mM Tris-HCl buffer (pH 8) containing 1% gum arabic, 12.5 μg bovine serum albumin ml^−1, 0.1% taurocholate, and either 100 mM fatty acid, isoprenoid acid, fatty alcohol, or isoprenoid alcohol. Stock solutions were sonicated to disperse the substrates. Substrate profiles of the three WS were tested using coupled enzyme in vitro reactions in which the CoA synthetases Acs1 and Acs2 are added to synthesize the CoA-activated fatty acid phytanic acid substrates from corresponding acid precursors for the WS reactions. Assays were carried out in 500-μl reactions containing in 50 mM Tris-HCl buffer (pH 8.0), 12.5 μl of each acid, and alcohol substrate stock solution (final concentrations of each substrate of 250 μM), 10 mM MgCl2, 10 mM CoASH, 10 mM ATP, 5 mM TCEP, 0.1 U of inorganic pyrophosphatase, 0.25 μg of Acs1 and Acs2 CoA synthetase, and 0.5 μg of WS to be tested. Assays were incubated at 37° C. overnight before thin-layer chromatography (TLC) analysis of the reaction products.
(§2) In vitro WS assay samples were extracted with 500 μl of chloroformmethanol (1:1 [vol/vol]), and extracts were analyzed by TLC with Whatman normal phase silica gel 60 plates and developed using hexane-diethyl ether-acetic acid (90:10:1 [vol/vol/vol]). TLC plates were stained with either iodine vapor or anisaldehyde solution as described earlier (Jork et al., 1990. Thin-layer chromatography reagents and detection methods, vol. 1a. Physical and chemical detection methods: fundamentals, reagents. VHC, Weinheim, Germany). Palmitoyl palmitate and triolein were used as WE and TAG reference compounds, respectively.

[3] = target: T1, WS2; test: Coupled enzyme assay, WS substrate profile (TLC); set-up: key to WE formation (spot intensity of wax ester products on TLC), WS2, C16 / WE formation (spot intensity of wax ester products on TLC), WS2, Phytol / WE formation (spot intensity of wax ester products on TLC), WS2, Farnesol / WE formation (spot intensity of wax ester products on TLC), WS2, C10 / WE formation (spot intensity of wax ester products on TLC), WS2, C12 / WE formation (spot intensity of wax ester products on TLC), WS2, C14: no activity (−); ranging from no activity (−) to most active (+++); ranging from no activity (−) to most active (+++); most active (+++); conditions: 12 h at 37° C., each substrate 250 μM; for WE formation (spot intensity of wax ester products on TLC), WS2, Farnesol: alcohol farnesol; for WE formation (spot intensity of wax ester products on TLC), WS2, Phytol: alcohol phytol; for WE formation (spot intensity of wax ester products on TLC), WS2, C10: fatty alcohol C10; for WE formation (spot intensity of wax ester products on TLC), WS2, C12: fatty alcohol C12; for WE formation (spot intensity of wax ester products on TLC), WS2, C14: fatty alcohol C14; for WE formation (spot intensity of wax ester products on TLC), WS2, C16: fatty alcohol C16
Experimental: as §1, §2

T1 sequence (A3RE51 entry or part of it): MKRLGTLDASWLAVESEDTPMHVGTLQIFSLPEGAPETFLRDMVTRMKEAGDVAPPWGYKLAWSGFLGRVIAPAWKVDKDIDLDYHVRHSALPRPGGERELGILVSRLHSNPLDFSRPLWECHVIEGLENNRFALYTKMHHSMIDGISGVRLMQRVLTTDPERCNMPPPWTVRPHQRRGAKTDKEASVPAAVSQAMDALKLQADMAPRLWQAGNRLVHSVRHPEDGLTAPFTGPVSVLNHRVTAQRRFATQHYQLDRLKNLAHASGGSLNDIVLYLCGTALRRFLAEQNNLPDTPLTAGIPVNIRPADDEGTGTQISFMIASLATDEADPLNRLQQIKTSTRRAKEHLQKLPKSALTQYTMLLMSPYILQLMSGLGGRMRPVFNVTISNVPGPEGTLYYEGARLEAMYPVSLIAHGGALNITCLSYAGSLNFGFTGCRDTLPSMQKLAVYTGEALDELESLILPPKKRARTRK

Compound	Acyl-CoA specificity of WS2 [1]	WE formation (spot intensity of wax ester products on TLC), WS1, Farnesol [2]	WE formation (spot intensity of wax ester products on TLC), WS1, Phytol [2]	WE formation (spot intensity of wax ester products on TLC), WS1, C10 [2]	WE formation (spot intensity of wax ester products on TLC), WS1, C12 [2]	WE formation (spot intensity of wax ester products on TLC), WS1, C14 [2]	WE formation (spot intensity of wax ester products on TLC), WS1, C16 [2]	WE formation (spot intensity of wax ester products on TLC), WS2, Farnesol [3]	WE formation (spot intensity of wax ester products on TLC), WS2, Phytol [3]	WE formation (spot intensity of wax ester products on TLC), WS2, C10 [3]	WE formation (spot intensity of wax ester products on TLC), WS2, C12 [3]	WE formation (spot intensity of wax ester products on TLC), WS2, C14 [3]	WE formation (spot intensity of wax ester products on TLC), WS2, C16 [3]	Fatty/isoprenoid alcohol specificity of WS2 ([1]; palmitoyl-CoA as acyl donor)
CCCCCCCCCCCCCC(=O)SCCNC(=O)CCNC(=O)[C@H](O)C(C)(C)COP(=O)(O)OP(=O)(O)OC[C@H]1O[C@@H](n2cnc3c(N)ncnc32)[C@H](O)[C@@H]1OP(=O)(O)O [myristoyl-CoA, myristoyl-CoA (C14:0)]	poorly converted													
CC/C=C\C/C=C\C/C=C\CCCCCCCC(=O)SCCNC(=O)CCNC(=O)[C@H](O)C(C)(C)COP(=O)(O)OP(=O)(O)OC[C@H]1O[C@@H](n2cnc3c(N)ncnc32)[C@H](O)[C@@H]1OP(=O)(O)O [linolenoyl-CoA, linolenoyl-CoA (C18:3)]	readily accepted													
CCCCCCCCCCCC(=O)SCCNC(=O)CCNC(=O)[C@H](O)C(C)(C)COP(=O)(O)OP(=O)(O)OC[C@H]1O[C@@H](n2cnc3c(N)ncnc32)[C@H](O)[C@@H]1OP(=O)(O)O [lauroyl-CoA, lauroyl-CoA (C12)]	not accepted at all													
CCCCCCCCCCO [Decanol]														more readily taken up for WE synthesis than the equivalent-chain-length acyl-CoA carbon chain
CC/C=C\C/C=C\C/C=C\CCCCCCCC(=O)O [C18Δcis9, 12, 15]		+	−	−	+	+	−	−	+	+	+	+	+	

Now from value to compound, other results behind:

Acyl-CoA specificity of WS2 [1]	WE formation (spot intensity of wax ester products on TLC), WS1, Farnesol [2]	WE formation (spot intensity of wax ester products on TLC), WS1, Phytol [2]	WE formation (spot intensity of wax ester products on TLC), WS1, C10 [2]	WE formation (spot intensity of wax ester products on TLC), WS1, C12 [2]	WE formation (spot intensity of wax ester products on TLC), WS1, C14 [2]	WE formation (spot intensity of wax ester products on TLC), WS1, C16 [2]	WE formation (spot intensity of wax ester products on TLC), WS2, Farnesol [3]	WE formation (spot intensity of wax ester products on TLC), WS2, Phytol [3]	WE formation (spot intensity of wax ester products on TLC), WS2, C10 [3]	WE formation (spot intensity of wax ester products on TLC), WS2, C12 [3]	WE formation (spot intensity of wax ester products on TLC), WS2, C14 [3]	WE formation (spot intensity of wax ester products on TLC), WS2, C16 [3]	Compound	Fatty/isoprenoid alcohol specificity of WS2 ([1]; palmitoyl-CoA as acyl donor)
	+++	−	−	+	+	+	++	+	+	+	+	+	CCCCCCCCCCCC(=O)O [C12]	
	++	++	++	+	++	+	++	+	+	+	+	+	CCCCCCCCCCCCCCCCCC(=O)O [C18]	
